ChEMBL document CHEMBL3826873, “Efficient transmembrane anion transport mediated by a bis(imidazolyl)-functionalized bis(choloyl) conjugate” (Bioorg Med Chem Lett, 2016)
Active and inactive are the calls of the source. No cut-off for these calls is given here.

Columns and labels:
[1] = Anionophoric activity across egg yolk phosphatidylcholine-based liposomal membrane vesicles (unknown origin) assessed as efflux of chloride anions after 300 seconds in presence of sodium nitrate in external solution by electrode technique; format: ADME; details: artificial membrane, 5 min
[2] = Anionophoric activity across egg yolk phosphatidylcholine-based liposomal membrane vesicles (unknown origin) assessed as relative chloride efflux measured as ratio of intrinsic rate constant and dissociation constant of self-association process after 300 seconds in presence of sodium nitrate in external solution by electrode technique; format: ADME; details: artificial membrane, 5 min
[3] = Anionophoric activity across egg yolk phosphatidylcholine-based liposomal membrane vesicles (unknown origin) assessed as efflux of chloride anions at 3 mol% after 300 seconds in presence of Li+ by electrode technique; format: ADME; details: artificial membrane, 5 min
[4] = Anionophoric activity across egg yolk phosphatidylcholine-based liposomal membrane vesicles (unknown origin) assessed as efflux of chloride anions at 3 mol% after 300 seconds in presence of Na+ by electrode technique; format: ADME; details: artificial membrane, 5 min
[5] = Anionophoric activity across egg yolk phosphatidylcholine-based liposomal membrane vesicles (unknown origin) assessed as efflux of chloride anions at 3 mol% after 300 seconds in presence of K+ by electrode technique; format: ADME; details: artificial membrane, 5 min
[6] = Anionophoric activity across egg yolk phosphatidylcholine-based liposomal membrane vesicles (unknown origin) assessed as efflux of chloride anions at 3 mol% after 300 seconds in presence of Rb+ by electrode technique; format: ADME; details: artificial membrane, 5 min
[7] = Anionophoric activity across egg yolk phosphatidylcholine-based liposomal membrane vesicles (unknown origin) assessed as efflux of chloride anions at 3 mol% after 300 seconds in presence of Cs+ by electrode technique; format: ADME; details: artificial membrane, 5 min
[8] = Anionophoric activity across egg yolk phosphatidylcholine-based liposomal membrane vesicles (unknown origin) assessed as efflux of chloride anions at 5 mol% after 300 seconds in presence of sodium sulfate by electrode technique; format: ADME; details: artificial membrane, 5 min
[9] = Anionophoric activity across egg yolk phosphatidylcholine-based liposomal membrane vesicles (unknown origin) assessed as induction of pH discharge at 3 mol% after 20 mins in presence of NO3- by fluorescence based pyranine entrap assay; details: artificial membrane
[10] = Anionophoric activity across egg yolk phosphatidylcholine-based liposomal membrane vesicles (unknown origin) assessed as induction of pH discharge at 3 mol% after 20 mins in presence of Cl- by fluorescence based pyranine entrap assay; details: artificial membrane
[11] = Anionophoric activity across egg yolk phosphatidylcholine-based liposomal membrane vesicles (unknown origin) assessed as induction of pH discharge at 3 mol% after 20 mins in presence of Br- by fluorescence based pyranine entrap assay; details: artificial membrane
[12] = Anionophoric activity across egg yolk phosphatidylcholine-based liposomal membrane vesicles (unknown origin) assessed as induction of pH discharge at 3 mol% after 20 mins in presence of I- by fluorescence based pyranine entrap assay; details: artificial membrane
[13] = Anionophoric activity across 70% POPC/30% cholesterol-based liposomal membrane vesicles (unknown origin) assessed as induction of pH discharge at 3 mol% after 20 mins by fluorescence based pyranine entrap assay

Row | SMILES | Activity [1] | Ratio [2] | Activity [3] | Activity [4] | Activity [5] | Activity [6] | Activity [7] | Activity [8] | Activity [9] | Activity [10] | Activity [11] | Activity [12] | Activity [13]
1 | C[C@H](CCC(=O)NC(Cc1cnc[nH]1)C(=O)NCc1ccc(CNC(=O)C(Cc2cnc[nH]2)NC(=O)CC[C@@H](C)[C@@H]2CC[C@@H]3[C@@H]4[C@@H](C[C@@H](O)[C@]32C)[C@]2(C)CC[C@H](O)C[C@@H]2C[C@@H]4O)cc1)[C@H]1CC[C@H]2[C@@H]3[C@H](O)C[C@@H]4C[C@H](O)CC[C@]4(C)[C@H]3C[C@H](O)[C@]12C (some centres undefined) | Dose-dependent effect | 1.45 ×10⁻² /s | Active | Active | Active | Active | Active | Active | Active | Active | Active | Active | Active
2 | C[C@H](CCC(=O)NCc1ccc(CNC(=O)CC[C@@H](C)[C@H]2CC[C@H]3[C@@H]4[C@H](O)C[C@@H]5C[C@H](O)CC[C@]5(C)[C@H]4C[C@H](O)[C@]23C)cc1)[C@H]1CC[C@H]2[C@@H]3[C@H](O)C[C@@H]4C[C@H](O)CC[C@]4(C)[C@H]3C[C@H](O)[C@]12C | Not Active |  |  |  |  |  |  |  |  |  |  |  | 
